From ChEMBL document CHEMBL1201862, “PubChem BioAssay data set” (2004)
Calls of active or inactive are those of the source.

Experiments:
Aminopeptidase N = target: T1, Aminopeptidase N (Plasmodium falciparum FcB1/Columbia, UniProt O96935); experiment: P. falciparum M1AAP inhibitors, biochemical, fluorogenic H-Leu-NHMec substrate, 1536-well (AID 1445); parameters: species or system Plasmodium falciparum 3D7, 3D7
T1 sequence (O96935 whole entry): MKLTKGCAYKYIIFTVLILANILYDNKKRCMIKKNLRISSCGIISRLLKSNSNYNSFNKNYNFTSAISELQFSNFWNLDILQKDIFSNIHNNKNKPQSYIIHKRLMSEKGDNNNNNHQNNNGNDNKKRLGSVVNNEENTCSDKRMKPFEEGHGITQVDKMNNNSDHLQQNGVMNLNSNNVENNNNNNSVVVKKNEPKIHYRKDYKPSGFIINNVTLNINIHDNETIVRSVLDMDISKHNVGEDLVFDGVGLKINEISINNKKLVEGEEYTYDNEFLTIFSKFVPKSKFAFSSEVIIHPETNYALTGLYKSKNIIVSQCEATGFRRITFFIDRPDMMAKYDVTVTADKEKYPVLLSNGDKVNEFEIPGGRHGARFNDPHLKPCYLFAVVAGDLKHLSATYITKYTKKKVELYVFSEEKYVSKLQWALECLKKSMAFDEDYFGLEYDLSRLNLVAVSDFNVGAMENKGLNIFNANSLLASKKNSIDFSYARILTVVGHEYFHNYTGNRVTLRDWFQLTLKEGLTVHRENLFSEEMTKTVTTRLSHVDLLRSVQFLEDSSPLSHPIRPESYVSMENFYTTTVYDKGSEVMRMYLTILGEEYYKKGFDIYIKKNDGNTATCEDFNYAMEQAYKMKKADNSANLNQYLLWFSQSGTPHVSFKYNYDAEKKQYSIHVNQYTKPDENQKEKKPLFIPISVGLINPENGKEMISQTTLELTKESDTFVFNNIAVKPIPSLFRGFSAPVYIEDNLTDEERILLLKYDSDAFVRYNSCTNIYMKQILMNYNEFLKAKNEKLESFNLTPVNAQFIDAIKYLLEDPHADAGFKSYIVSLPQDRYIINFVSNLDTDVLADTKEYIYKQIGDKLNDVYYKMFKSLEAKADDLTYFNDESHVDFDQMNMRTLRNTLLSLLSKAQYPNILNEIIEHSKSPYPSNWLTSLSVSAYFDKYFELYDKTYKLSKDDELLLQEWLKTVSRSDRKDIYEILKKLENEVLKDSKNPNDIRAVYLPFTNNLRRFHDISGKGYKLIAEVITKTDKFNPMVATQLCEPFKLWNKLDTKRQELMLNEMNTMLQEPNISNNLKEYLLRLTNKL

[1] = cytotoxicity in HPDE-C7 cells, cell-based, fluorescence, HTS (AID 430); type: functional; conditions: Homo sapiens
[2] = cytotoxicity in KRAS-transformed pancreatic duct cells, primary screen, cell-based, fluorescence, HTS (AID 431); type: functional; conditions: Homo sapiens;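 also: cell line used: HPDE-C7K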
Prothrombin = Prothrombin (Homo sapiens, UniProt P00734); experiment: Thrombin 1536 HTS Dose Response Confirmation. [Related pubchem assays: 1046 (Thrombin 1536 HTS; hits were confirmed in this assay)]; type: functional
Cytochrome P450 2C19 = Cytochrome P450 2C19 (Homo sapiens, UniProt P33261); experiment: Cytochrome panel assay with activity outcomes. Panel member name: p450-cyp2c19 Compounds with AC50 equal or less than 10 uM are considered active; type: functional; conditions: read-out: AC50
Cytochrome P450 2C19, sequence (P33261 whole entry): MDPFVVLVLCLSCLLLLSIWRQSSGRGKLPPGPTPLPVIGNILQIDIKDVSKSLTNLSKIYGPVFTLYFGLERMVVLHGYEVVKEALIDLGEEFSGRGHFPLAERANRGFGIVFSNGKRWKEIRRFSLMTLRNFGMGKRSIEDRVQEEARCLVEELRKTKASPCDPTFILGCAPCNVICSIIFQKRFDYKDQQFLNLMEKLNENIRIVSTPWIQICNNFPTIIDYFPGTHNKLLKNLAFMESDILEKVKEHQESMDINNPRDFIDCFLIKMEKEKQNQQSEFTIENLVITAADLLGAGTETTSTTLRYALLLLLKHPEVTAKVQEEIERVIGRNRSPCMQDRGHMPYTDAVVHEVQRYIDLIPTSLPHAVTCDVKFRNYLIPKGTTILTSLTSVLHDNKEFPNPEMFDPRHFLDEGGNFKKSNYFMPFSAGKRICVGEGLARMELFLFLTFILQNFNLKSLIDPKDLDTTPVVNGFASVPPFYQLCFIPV

[3] = target: T2, Corticotropin-releasing factor receptor 2/Corticotropin-releasing factor-binding protein (Homo sapiens, UniProt P24387+Q13324); experiment: activators of CRF receptor 2 with binding protein – uHTS hits, confirmation (AID 602473); type: functional; conditions: read-out: EC50_Mean
T2 sequence (Q13324 whole entry): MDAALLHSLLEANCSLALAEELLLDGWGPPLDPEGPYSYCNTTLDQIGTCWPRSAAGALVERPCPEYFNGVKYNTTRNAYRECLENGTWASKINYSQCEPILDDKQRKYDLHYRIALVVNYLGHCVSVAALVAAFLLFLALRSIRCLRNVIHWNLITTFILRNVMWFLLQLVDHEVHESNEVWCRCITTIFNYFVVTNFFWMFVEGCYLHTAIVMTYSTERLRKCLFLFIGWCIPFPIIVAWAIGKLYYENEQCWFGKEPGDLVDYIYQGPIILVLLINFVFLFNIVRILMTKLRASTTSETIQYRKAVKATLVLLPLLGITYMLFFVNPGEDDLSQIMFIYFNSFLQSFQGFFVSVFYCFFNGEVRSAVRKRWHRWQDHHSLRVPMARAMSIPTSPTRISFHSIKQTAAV
T2 sequence (P24387 whole entry): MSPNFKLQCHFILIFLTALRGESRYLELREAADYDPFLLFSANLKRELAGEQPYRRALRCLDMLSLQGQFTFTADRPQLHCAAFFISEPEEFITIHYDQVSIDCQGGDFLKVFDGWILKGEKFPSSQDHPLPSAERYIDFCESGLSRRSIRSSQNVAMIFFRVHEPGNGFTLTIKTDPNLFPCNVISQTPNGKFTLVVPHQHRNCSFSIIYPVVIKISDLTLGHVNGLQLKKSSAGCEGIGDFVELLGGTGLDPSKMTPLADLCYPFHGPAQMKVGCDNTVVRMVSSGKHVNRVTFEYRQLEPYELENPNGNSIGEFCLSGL

[4] = target: T2, Corticotropin-releasing factor receptor 2/Corticotropin-releasing factor-binding protein; experiment: Dose Response confirmation of uHTS hits for small molecule antagonists of the CRF-binding protein and CRF-R2 receptor complex.; type: functional; conditions: read-out: IC50_Mean
[5] = cytotoxicity toward NIH3T3 fibroblasts, dose response, counter-screen, cell-based, ATP luminescence, mouse fibroblasts (AID 2010); type: functional;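 also: cells exposed to compound for about 90 hours before reading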
[6] = target: T3, Carboxy-terminal domain RNA polymerase II polypeptide A small phosphatase 1 (Homo sapiens, UniProt Q9GZU7); experiment: inhibitors of CTDSP1, concentration-response testing, biochemical assay, absorbance-based, actives from ultra-high-throughput screening (AID 540297); type: functional
T3 sequence (Q9GZU7 whole entry): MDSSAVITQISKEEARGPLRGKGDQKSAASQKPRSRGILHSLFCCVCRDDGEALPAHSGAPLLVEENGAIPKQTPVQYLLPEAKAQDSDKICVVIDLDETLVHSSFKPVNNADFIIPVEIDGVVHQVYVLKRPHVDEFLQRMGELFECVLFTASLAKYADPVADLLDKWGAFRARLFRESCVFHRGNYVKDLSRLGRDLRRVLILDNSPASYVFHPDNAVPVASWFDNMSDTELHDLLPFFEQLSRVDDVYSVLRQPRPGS

[7] = inhibitors of intracellular T. cruzi replication, confirmation, NIH3T3 host cells, beta-gal luminescence (AID 2044); type: functional, cell-based;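 also: intracellular parasites grown in NIH/3T3 mouse fibroblasts as host cells; luminescent beta-galactosidase reporter signal from transgenic T. cruzi replicating inside host cells; inhibitors lower the luminescence signal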
[8] = P. falciparum Dd2 growth inhibitors, dose response, SYBR Green, dry powder samples (AID 1159566); type: functional, cell-based;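 also: potency for growth inhibition with lower SYBR green DNA signal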
[9] = P. falciparum 3D7-ScDHODH growth inhibitors, dose response, SYBR Green, dry powder samples (AID 1159570); type: functional, cell-based;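 also: parasite growth measured after 72 hours of compound exposure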
[10] = P. falciparum Dd2 growth inhibitors, dose response, SYBR Green, cherry-picked samples (AID 1159567); type: functional, cell-based
[11] = P. falciparum ATP4 D1247Y mutant growth inhibitors, dose response, NITD609-resistant line, SYBR Green, dry powder (AID 1159571); type: functional, cell-based;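 also: parasites synchronized at ring stage by sorbitol before testing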

In the case of CCCN1C(=O)/C(=C/c2c(N3CCNC(=O)C3CC(=O)OC)nc3c(C)cccn3c2=O)SC1=S (centres undefined), the IC50 (Aminopeptidase N) was 68.1 µM (active).
With O=C(O)c1cccc(NC(S)=NC(NC(=O)c2ccccc2[N+](=O)[O-])C(Cl)(Cl)Cl)c1 (centres undefined) the IC50 (Aminopeptidase N) was 58.6 µM (active).
In the case of CC(=O)Nc1nonc1-n1nnc(C(=O)NCc2ccccc2)c1C, the EC50 [1] was > 20 µM (not active) and the EC50 [2] was > 20 µM (not active).
With CCCC(=O)n1nc(-c2cccnc2)nc1N the IC50 (Prothrombin) was 0.986 µM (active) and the AC50 (Cytochrome P450 2C19) was 31.6 µM (inconclusive).
With CC(C)N1CCC2(CC1)N=C(c1ccc3c(c1)OCO3)CC(c1cc(Cl)ccc1O)N2 (centres undefined) the EC50 [1] was 4.25 µM (active) and the EC50 [2] was 3.54 µM (active).
In the case of CN1CCC2(CC1)Nc1nc(SCc3ccc(Cl)cc3)nn1C1=C2CN(C)CC1, the EC50 [3] was > 53 µM (inactive), the EC50 [1] was > 20 µM (not active) and the IC50 [4] was > 47.1 µM (inactive). For the same molecule, the EC50 [2] was > 20 µM (not active).
With CC1=NN(c2nc(-c3ccc(C)cc3)cs2)C(=O)C1N=Nc1ccccc1O (centres undefined) the EC50 [5] was > 60 µM (not active), the IC50 [6] was 3.69 µM (active) and the IC50 (Aminopeptidase N) was 3.37 µM (active). For the same molecule, the EC50 [7] was 1.63 µM (active).
With Cc1ccc(S(=O)(=O)NC(=O)N2CCC(C)CC2)cc1 the IC50 (Prothrombin) was > 50 µM (not active).
In the case of COc1cc(/C=C(/C#N)c2nc3ccccc3[nH]2)ccc1OCc1ccc(C(=O)O)o1, the IC50 (Aminopeptidase N) was 52.1 µM (active).
For N/C(=N\S(=O)(=O)c1ccccc1)c1ccc([N+](=O)[O-])cc1, the IC50 (Prothrombin) was > 50 µM (not active).
For Cc1cc2ncn(S(=O)(=O)N3CCOCC3)c2cc1C, the IC50 (Prothrombin) was > 50 µM (not active).
With O=C(c1cccs1)n1nc(-c2cccnc2)nc1NCc1ccco1 the IC50 (Prothrombin) was 0.711 µM (active).
For C[C@@H]1CN([C@@H](C)CO)S(=O)(=O)c2ccc(C#CC3CCCC3)cc2O[C@H]1CN(C)C(=O)Cc1ccncc1, the AC50 [8] was 0.722 µM (active), the AC50 [9] was 2.98 µM (active) and the AC50 [10] was 1.16 µM (active). The AC50 [11] was 1.72 µM (active).
For COc1ccc(NC(=O)N2CCC3(CC2)CN(C(=O)C2CCC2)[C@H](CO)c2c3c3ccc(OC)cc3n2C)cc1, the AC50 [8] was 0.0967 µM (active), the AC50 [9] was 0.0417 µM (active) and the AC50 [10] was 0.969 µM (active). For the same molecule, the AC50 [11] was 0.0845 µM (active).
